Species: Rattus norvegicus
Test: Open TG-GATES - Regimen: Single
Assay type: toxicity, organism-based, Sprague-Dawley
Design: regimen Single, gender Male, age 6 weeks
Conditions: in vivo, po, 0 mg/kg, route gavage, dose level Control; for APTT / Bas / Eos / Fbg / Hb / Ht / Lym / MCH / MCHC / MCV / Mono / Neu / PT / Plat / RBC / Ret / WBC: tissue Blood; for KIDNEY_L / KIDNEY_R / KIDNEY_TOTAL: tissue Kidney; for LIVER: tissue Liver; for A/G / ALP / ALT / AST / BUN / CRE / Ca / Cl / DBIL / GLC / IP / K / LDH / Na / PL / RALB / TBIL / TC / TG / TP / gamma-GTP: tissue Plasma

Compound: Nc1ccc(Cc2ccc(N)cc2)cc1
- TERMINAL_BW (3 h): 209.4 g
- APTT (3 h): 13.9 s
- Bas (3 h): 0%
- Eos (3 h): 0.6%
- Fbg (3 h): 263.2 mg/dL
- Hb (3 h): 12.7 g/dL
- Ht (3 h): 37.3%
- Lym (3 h): 73.6%
- MCH (3 h): 21.8 pg
- MCHC (3 h): 34.1%
- MCV (3 h): 63.9 fL
- Mono (3 h): 3%
- Neu (3 h): 21.2%
- PT (3 h): 11.7 s
- Plat (3 h): 145.5 x10_4/uL
- RBC (3 h): 584.2 x10_4/ul
- Ret (3 h): 9.5%
- WBC (3 h): 100 x10_2/uL
- KIDNEY_L (3 h): 0.9 g
- KIDNEY_R (3 h): 0.9 g
- KIDNEY_TOTAL (3 h): 1.8 g
- LIVER (3 h): 9.5 g
- A/G (3 h): 0.8
- ALP (3 h): 1787.8 IU/L
- ALT (3 h): 46.8 IU/L
- AST (3 h): 90.8 IU/L
- BUN (3 h): 9.8 mg/dL
- CRE (3 h): 0.2 mg/dL
- Ca (3 h): 11 mg/dL
- Cl (3 h): 106.8 meq/L
- DBIL (3 h): 0.024 mg/dL
- GLC (3 h): 158.2 mg/dL
- IP (3 h): 9.1 mg/dL
- K (3 h): 3.7 meq/L
- LDH (3 h): 72.6 IU/L
- Na (3 h): 141.2 meq/L
- PL (3 h): 149.8 mg/dL
- RALB (3 h): 2.5 g/dL
- TBIL (3 h): 0.056 mg/dL
- TC (3 h): 76.8 mg/dL
- TG (3 h): 128.2 mg/dL
- TP (3 h): 5.6 g/dL
- gamma-GTP (3 h): 1 IU/L
- TERMINAL_BW (6 h): 206.4 g
- APTT (6 h): 14.9 s
- Bas (6 h): 0%
- Eos (6 h): 1%
- Fbg (6 h): 279.2 mg/dL
- Hb (6 h): 13 g/dL
- Ht (6 h): 38%
- Lym (6 h): 74.2%
- MCH (6 h): 21.4 pg
- MCHC (6 h): 34.1%
- MCV (6 h): 62.8 fL
- Mono (6 h): 2.6%
- Neu (6 h): 21.6%
- PT (6 h): 11.6 s
- Plat (6 h): 134.9 x10_4/uL
- RBC (6 h): 606 x10_4/ul
- Ret (6 h): 8%
- WBC (6 h): 104.9 x10_2/uL
- KIDNEY_L (6 h): 0.9 g
- KIDNEY_R (6 h): 0.9 g
- KIDNEY_TOTAL (6 h): 1.8 g
- LIVER (6 h): 8.5 g
- A/G (6 h): 0.8
- ALP (6 h): 1552.8 IU/L
- ALT (6 h): 35.2 IU/L
- AST (6 h): 75 IU/L
- BUN (6 h): 9 mg/dL
- CRE (6 h): 0.2 mg/dL
- Ca (6 h): 10.8 mg/dL
- Cl (6 h): 107.4 meq/L
- DBIL (6 h): 0.024 mg/dL
- GLC (6 h): 165 mg/dL
- IP (6 h): 10 mg/dL
- K (6 h): 4.2 meq/L
- LDH (6 h): 67 IU/L
- Na (6 h): 141.8 meq/L
- PL (6 h): 131.6 mg/dL
- RALB (6 h): 2.5 g/dL
- TBIL (6 h): 0.062 mg/dL
- TC (6 h): 71.2 mg/dL
- TG (6 h): 59.4 mg/dL
- TP (6 h): 5.7 g/dL
- gamma-GTP (6 h): 1.4 IU/L
- TERMINAL_BW (9 h): 204.2 g
- APTT (9 h): 14.5 s
- Bas (9 h): 0%
- Eos (9 h): 0.8%
- Fbg (9 h): 277 mg/dL
- Hb (9 h): 12.7 g/dL
- Ht (9 h): 37.3%
- Lym (9 h): 73.4%
- MCH (9 h): 21.1 pg
- MCHC (9 h): 34.2%
- MCV (9 h): 61.8 fL
- Mono (9 h): 1.8%
- Neu (9 h): 23.6%
- PT (9 h): 11.7 s
- Plat (9 h): 137.5 x10_4/uL
- RBC (9 h): 603.8 x10_4/ul
- Ret (9 h): 8%
- WBC (9 h): 65.4 x10_2/uL
- KIDNEY_L (9 h): 0.9 g
- KIDNEY_R (9 h): 0.9 g
- KIDNEY_TOTAL (9 h): 1.7 g
- LIVER (9 h): 7.8 g
- A/G (9 h): 0.8
- ALP (9 h): 1332.6 IU/L
- ALT (9 h): 27.4 IU/L
- AST (9 h): 64.4 IU/L
- BUN (9 h): 8.8 mg/dL
- CRE (9 h): 0.2 mg/dL
- Ca (9 h): 10.5 mg/dL
- Cl (9 h): 106.4 meq/L
- DBIL (9 h): 0.018 mg/dL
- GLC (9 h): 174.2 mg/dL
- IP (9 h): 10.5 mg/dL
- K (9 h): 4 meq/L
- LDH (9 h): 58.2 IU/L
- Na (9 h): 143 meq/L
- PL (9 h): 129.6 mg/dL
- RALB (9 h): 2.5 g/dL
- TBIL (9 h): 0.064 mg/dL
- TC (9 h): 77.8 mg/dL
- TG (9 h): 42.4 mg/dL
- TP (9 h): 5.6 g/dL
- gamma-GTP (9 h): 1 IU/L
- TERMINAL_BW (24 h): 219.7 g
- APTT (24 h): 12.6 s
- Bas (24 h): 0%
- Eos (24 h): 1%
- Fbg (24 h): 258.8 mg/dL
- Hb (24 h): 13.1 g/dL
- Ht (24 h): 37.9%
- Lym (24 h): 73.2%
- MCH (24 h): 21.2 pg
- MCHC (24 h): 34.5%
- MCV (24 h): 61.6 fL
- Mono (24 h): 1.8%
- Neu (24 h): 23.2%
- PT (24 h): 11.4 s
- Plat (24 h): 146.9 x10_4/uL
- RBC (24 h): 616.8 x10_4/ul
- Ret (24 h): 6.8%
- WBC (24 h): 88.9 x10_2/uL
- KIDNEY_L (24 h): 0.9 g
- KIDNEY_R (24 h): 0.9 g
- KIDNEY_TOTAL (24 h): 1.9 g
- LIVER (24 h): 9.5 g
- A/G (24 h): 0.9
- ALP (24 h): 1942.2 IU/L
- ALT (24 h): 38.6 IU/L
- AST (24 h): 74 IU/L
- BUN (24 h): 14.6 mg/dL
- CRE (24 h): 0.2 mg/dL
- Ca (24 h): 10.9 mg/dL
- Cl (24 h): 106.4 meq/L
- DBIL (24 h): 0.02 mg/dL
- GLC (24 h): 167 mg/dL
- IP (24 h): 7.7 mg/dL
- K (24 h): 3.9 meq/L
- LDH (24 h): 49.2 IU/L
- Na (24 h): 143.2 meq/L
- PL (24 h): 135.4 mg/dL
- RALB (24 h): 2.6 g/dL
- TBIL (24 h): 0.044 mg/dL
- TC (24 h): 72 mg/dL
- TG (24 h): 89.6 mg/dL
- TP (24 h): 5.5 g/dL
- gamma-GTP (24 h): 1 IU/L

Source: ChEMBL document CHEMBL3885861, “Open TG-GATES”
